Test results as given in article PMC7956813, “Evaluation of Fused Pyrrolothiazole Systems as Correctors of Mutant CFTR Protein” (Molecules, 2021).

Target: F508del-CFTR (Homo sapiens, UniProt P13569, DEL508-508)
Assay: HS-YFP iodide-influx fluorescence quenching assay, […] h incubation, Hill fit
Assay type: cell-based
Details: read-out: half-effective concentration

F508del-CFTR, sequence (P13569 with tags, fused parts or gaps DEL508-508): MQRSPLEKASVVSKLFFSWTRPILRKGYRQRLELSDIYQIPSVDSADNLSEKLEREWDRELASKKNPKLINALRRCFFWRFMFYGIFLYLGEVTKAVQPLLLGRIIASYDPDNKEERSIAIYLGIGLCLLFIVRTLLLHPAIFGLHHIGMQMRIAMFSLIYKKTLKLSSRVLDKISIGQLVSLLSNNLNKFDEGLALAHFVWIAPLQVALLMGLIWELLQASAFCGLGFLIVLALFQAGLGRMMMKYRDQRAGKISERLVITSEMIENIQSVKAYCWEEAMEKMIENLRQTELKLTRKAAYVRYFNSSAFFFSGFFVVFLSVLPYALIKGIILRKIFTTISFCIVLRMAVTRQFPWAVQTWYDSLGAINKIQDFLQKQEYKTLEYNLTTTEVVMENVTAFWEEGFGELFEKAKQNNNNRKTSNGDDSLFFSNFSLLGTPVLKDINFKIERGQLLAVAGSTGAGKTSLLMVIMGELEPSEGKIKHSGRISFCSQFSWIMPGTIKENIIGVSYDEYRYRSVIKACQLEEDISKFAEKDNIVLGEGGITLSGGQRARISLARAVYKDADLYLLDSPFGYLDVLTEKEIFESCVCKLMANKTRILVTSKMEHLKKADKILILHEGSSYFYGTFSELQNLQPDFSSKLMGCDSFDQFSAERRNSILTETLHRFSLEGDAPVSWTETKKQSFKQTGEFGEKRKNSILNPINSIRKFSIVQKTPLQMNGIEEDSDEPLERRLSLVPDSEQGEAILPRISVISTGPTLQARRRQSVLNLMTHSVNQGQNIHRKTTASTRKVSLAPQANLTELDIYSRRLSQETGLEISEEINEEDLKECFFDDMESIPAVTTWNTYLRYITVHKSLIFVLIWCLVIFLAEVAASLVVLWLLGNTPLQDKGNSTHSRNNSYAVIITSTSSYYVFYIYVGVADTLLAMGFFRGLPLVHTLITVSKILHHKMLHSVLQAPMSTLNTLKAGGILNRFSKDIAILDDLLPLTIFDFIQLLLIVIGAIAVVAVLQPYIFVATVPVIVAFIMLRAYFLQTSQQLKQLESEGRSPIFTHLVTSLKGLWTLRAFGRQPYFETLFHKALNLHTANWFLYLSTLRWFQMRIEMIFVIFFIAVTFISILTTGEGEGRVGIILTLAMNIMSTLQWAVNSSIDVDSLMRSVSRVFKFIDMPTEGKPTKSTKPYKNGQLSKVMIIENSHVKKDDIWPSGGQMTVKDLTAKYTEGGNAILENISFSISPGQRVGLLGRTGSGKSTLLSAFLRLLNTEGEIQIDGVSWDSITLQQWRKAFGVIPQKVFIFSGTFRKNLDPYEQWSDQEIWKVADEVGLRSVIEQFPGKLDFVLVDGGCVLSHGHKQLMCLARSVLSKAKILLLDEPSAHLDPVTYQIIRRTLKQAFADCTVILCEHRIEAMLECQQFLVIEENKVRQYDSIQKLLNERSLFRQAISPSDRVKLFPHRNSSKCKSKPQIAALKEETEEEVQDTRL

COc1ccc(Cl)cc1NC(=O)c1cc2c([nH]1)-c1nc(NC(=O)C(C)(C)C)sc1CC2 [compound 44, N-(5-Chloro-2-Methoxyphenyl)-2-[(2,2-Dimethylpropanoyl)Amino]-5,8-Dihydro-4H-[1,3]Thiazolo[5,4-g]Indole-7-Carboxamide]
EC50: 5 µM
